We go through one compound from publication PMC6614837 (Nucleic Acids Research, 2019).

This assay addresses T1, P protein from T. maritima (Thermotoga maritima, UniProt Q9X1H4).
T1 construct: GST (cleaved yes); made in house; host or cells: E. coli BL21(DE3)pLysS
T1 sequence (Q9X1H4 1-117): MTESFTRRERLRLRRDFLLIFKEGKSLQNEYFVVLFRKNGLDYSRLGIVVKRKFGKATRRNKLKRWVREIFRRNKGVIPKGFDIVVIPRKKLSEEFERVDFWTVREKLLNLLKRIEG
The assay can be described thus: Biolayer interferometry binding to immobilized His-tagged P protein. The settings on record: BLI, P protein on Ni-NTA, 1:1 Langmuir model. The method, then:
Immobilization of the His-tagged P protein from T. maritima at 0.05 mg/ml (3.4 μM) was performed on Ni-NTA biosensors. For the initial binding tests to the P protein, a compound concentration of 1 mM was used. Periods for each step of the assay were as follows: immobilization (400 s), wash (100 s), baseline establishment (100s), association (250 s), dissociation (250 s). For each titration curve, […] were used corresponding to the 125, 62.5, 31.25, 15.6 and 7.8 μM compound concentrations. Control biosensors were used to subtract non-specific binding of compounds to the biosensor surface. […] Kinetic binding parameters were calculated using Data Analysis 8.2 (ForteBio, Inc.). […]
Figure 5. […] Association and dissociation of the 5′ RNA leader to the P protein (TmP) is measured over time. […] P protein was immobilized on Ni-NTA biosensors after which its association and dissociation from indicated compounds were monitored. […] (C) Location of purpurin (green) on the T. maritima P protein as determined by X-ray crystallography (PDB code: 6MAX; see Supplementary Figure S19 and Supplementary Table S2). […]
Supplementary Figure 15. […] The pre-tRNA in buffer HAAMD (20 mM HEPES pH 7.4, 100 mM ammonium acetate, 10 mM MgCl2, 5% DMSO or 5% PEG 200) was measured against RNase P in concentrations ranging from 62.5 to 7.8 nM in a two-fold dilution series. […]

As to `O=C1c2ccccc2C(=O)c2c(O)c(O)cc(O)c21` [Purpurin, 1,2,4-trihydroxyanthraquinone], the Kd came out at 6.8 µM. This counts as single-digit micromolar.

The term Kd denotes the equilibrium constant for the complex coming apart. Higher therefore signals lower affinity.
